Test results published in ChEMBL document CHEMBL1201862, “PubChem BioAssay data set” (2004).
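Briefly, cells in 96-well plates were exposed to five compound concentrations for 48 h, and endpoints were estimated by linear interpolation. GI50 = concentration required for 50% inhibition of growth.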 Active and inactive are the calls of the source. Cut-off read from the data, not from the text of the source: active = GI50 up to about 1.1 µM and inactive = higher.

Legend:
Experiment in all cases: NCI tumour cell line growth inhibition, 48 h
KM12 = tested on: KM12
RPMI-8226 = tested on: RPMI-8226
A549 = tested on: A549
CAKI-1 = tested on: CAKI-1
SR = tested on: SR
SF-268 = tested on: SF-268
Hs-578T = tested on: Hs-578T
PC-3 = tested on: PC-3
HOP-92 = tested on: HOP-92
CCRF-CEM = tested on: CCRF-CEM
T47D = tested on: T47D
MDA-MB-435 = tested on: MDA-MB-435
UACC-62 = tested on: UACC-62
EKVX = tested on: EKVX
U-251 = tested on: U-251
IGROV-1 = tested on: IGROV-1
SF-539 = tested on: SF-539
SN12C = tested on: SN12C
RXF 393 = tested on: RXF 393
SK-OV-3 = tested on: SK-OV-3

SMILES: O=C(O)c1cc(C(=O)O)nc(C(=O)O)c1
- GI50 (KM12): > 100 µM (inactive)
- GI50 (RPMI-8226): > 100 µM (inactive)
- GI50 (A549): > 100 µM (inactive)
- GI50 (CAKI-1): > 100 µM (inactive)
- GI50 (SR): > 100 µM (inactive)
- GI50 (SF-268): > 100 µM (inactive)
- GI50 (Hs-578T): > 100 µM (inactive)
- GI50 (PC-3): > 100 µM (inactive)
- GI50 (HOP-92): > 100 µM (inactive)
- GI50 (CCRF-CEM): 42.7 µM (inactive)
- GI50 (T47D): > 100 µM (inactive)
- GI50 (MDA-MB-435): > 100 µM (inactive)
- GI50 (UACC-62): > 100 µM (inactive)
- GI50 (EKVX): > 100 µM (inactive)
- GI50 (U-251): > 100 µM (inactive)
- GI50 (IGROV-1): > 100 µM (inactive)
- GI50 (SF-539): > 100 µM (inactive)
- GI50 (SN12C): > 100 µM (inactive)
- GI50 (RXF 393): > 100 µM (inactive)
- GI50 (SK-OV-3): > 100 µM (inactive)

SMILES: Nc1nc2c(C(=O)NCc3cccs3)nnn2c2cccc(Cl)c12
- GI50 (KM12): > 100 µM (inactive)
- GI50 (RPMI-8226): 39.7 µM (inactive)
- GI50 (A549): > 100 µM (inactive)
- GI50 (CAKI-1): > 100 µM (inactive)
- GI50 (SR): 52.2 µM (inactive)
- GI50 (SF-268): > 100 µM (inactive)
- GI50 (Hs-578T): > 100 µM (inactive)
- GI50 (PC-3): 54.5 µM (inactive)
- GI50 (HOP-92): 79.3 µM (inactive)
- GI50 (CCRF-CEM): 22.3 µM (inactive)
- GI50 (T47D): 19.5 µM (inactive)
- GI50 (MDA-MB-435): > 100 µM (inactive)
- GI50 (UACC-62): > 100 µM (inactive)
- GI50 (EKVX): 57.8 µM (inactive)
- GI50 (U-251): > 100 µM (inactive)
- GI50 (IGROV-1): > 100 µM (inactive)
- GI50 (SF-539): 77.3 µM (inactive)
- GI50 (SN12C): > 100 µM (inactive)
- GI50 (RXF 393): 59.4 µM (inactive)
- GI50 (SK-OV-3): > 100 µM (inactive)

SMILES: CC[P+](c1ccccc1)(N(C)C)N(C)C
- GI50 (KM12): > 100 µM (inactive)
- GI50 (RPMI-8226): 71.9 µM (inactive)
- GI50 (A549): > 100 µM (inactive)
- GI50 (CAKI-1): > 100 µM (inactive)
- GI50 (SR): > 100 µM (inactive)
- GI50 (SF-268): 95.1 µM (inactive)
- GI50 (Hs-578T): > 100 µM (inactive)
- GI50 (PC-3): 60.5 µM (inactive)
- GI50 (HOP-92): 38.9 µM (inactive)
- GI50 (CCRF-CEM): > 100 µM (inactive)
- GI50 (T47D): > 100 µM (inactive)
- GI50 (MDA-MB-435): > 100 µM (inactive)
- GI50 (UACC-62): > 100 µM (inactive)
- GI50 (EKVX): > 100 µM (inactive)
- GI50 (U-251): 53.8 µM (inactive)
- GI50 (IGROV-1): > 100 µM (inactive)
- GI50 (SF-539): > 100 µM (inactive)
- GI50 (SN12C): > 100 µM (inactive)
- GI50 (RXF 393): > 100 µM (inactive)
- GI50 (SK-OV-3): > 100 µM (inactive)

SMILES: CN(C)c1ccc2nc3c(C(=O)O)cc(O)c(O)c3[o+]c2c1
- GI50 (KM12): 26.9 µM (inactive)
- GI50 (RPMI-8226): 18.8 µM (inactive)
- GI50 (A549): > 100 µM (inactive)
- GI50 (CAKI-1): 52.8 µM (inactive)
- GI50 (SR): 17.5 µM (inactive)
- GI50 (SF-268): 41.5 µM (inactive)
- GI50 (Hs-578T): 68.4 µM (inactive)
- GI50 (PC-3): 36.5 µM (inactive)
- GI50 (HOP-92): 67 µM (inactive)
- GI50 (CCRF-CEM): 10.5 µM (inactive)
- GI50 (T47D): 15.1 µM (inactive)
- GI50 (MDA-MB-435): 21.2 µM (inactive)
- GI50 (UACC-62): 20 µM (inactive)
- GI50 (EKVX): 26.4 µM (inactive)
- GI50 (U-251): 29.7 µM (inactive)
- GI50 (IGROV-1): 92.3 µM (inactive)
- GI50 (SF-539): 27 µM (inactive)
- GI50 (SN12C): 20.2 µM (inactive)
- GI50 (RXF 393): 24.6 µM (inactive)
- GI50 (SK-OV-3): 25 µM (inactive)

SMILES: COc1ccc(/N=C(C)/C(C)=N/c2ccc(OC)cc2)cc1
- GI50 (KM12): 6.85 µM (inactive)
- GI50 (RPMI-8226): 25.1 µM (inactive)
- GI50 (A549): 37.9 µM (inactive)
- GI50 (CAKI-1): 35.5 µM (inactive)
- GI50 (SR): 65.6 µM (inactive)
- GI50 (SF-268): 52.5 µM (inactive)
- GI50 (Hs-578T): > 100 µM (inactive)
- GI50 (PC-3): 40.7 µM (inactive)
- GI50 (HOP-92): 88.1 µM (inactive)
- GI50 (CCRF-CEM): 39.1 µM (inactive)
- GI50 (T47D): 77.1 µM (inactive)
- GI50 (MDA-MB-435): 8.95 µM (inactive)
- GI50 (EKVX): > 100 µM (inactive)
- GI50 (U-251): > 100 µM (inactive)
- GI50 (IGROV-1): > 100 µM (inactive)
- GI50 (SF-539): 30.8 µM (inactive)
- GI50 (SN12C): > 100 µM (inactive)
- GI50 (RXF 393): > 100 µM (inactive)
- GI50 (SK-OV-3): > 100 µM (inactive)

SMILES: O=C(N/N=C/c1c(-c2ccccc2)no[n+]1[O-])N1CCOCC1
- GI50 (KM12): > 100 µM (inactive)
- GI50 (RPMI-8226): > 100 µM (inactive)
- GI50 (A549): > 100 µM (inactive)
- GI50 (CAKI-1): > 100 µM (inactive)
- GI50 (SR): 0.264 µM (active)
- GI50 (SF-268): > 100 µM (inactive)
- GI50 (Hs-578T): > 100 µM (inactive)
- GI50 (PC-3): > 100 µM (inactive)
- GI50 (HOP-92): > 100 µM (inactive)
- GI50 (CCRF-CEM): > 100 µM (inactive)
- GI50 (T47D): > 100 µM (inactive)
- GI50 (MDA-MB-435): > 100 µM (inactive)
- GI50 (UACC-62): > 100 µM (inactive)
- GI50 (EKVX): > 100 µM (inactive)
- GI50 (U-251): > 100 µM (inactive)
- GI50 (IGROV-1): > 100 µM (inactive)
- GI50 (SF-539): > 100 µM (inactive)
- GI50 (SN12C): > 100 µM (inactive)
- GI50 (RXF 393): > 100 µM (inactive)
- GI50 (SK-OV-3): > 100 µM (inactive)

SMILES: CC1=C[C@H]([C@H]2C=C(C)C(C(N)=O)=CN2Cc2c(Cl)cccc2Cl)N(Cc2c(Cl)cccc2Cl)C=C1C(N)=O
- GI50 (KM12): 55.5 µM (inactive)
- GI50 (RPMI-8226): 69.7 µM (inactive)
- GI50 (A549): > 75 µM (inactive)
- GI50 (CAKI-1): > 75 µM (inactive)
- GI50 (SR): > 75 µM (inactive)
- GI50 (SF-268): > 75 µM (inactive)
- GI50 (Hs-578T): > 75 µM (inactive)
- GI50 (PC-3): > 75 µM (inactive)
- GI50 (HOP-92): 16 µM (inactive)
- GI50 (CCRF-CEM): 45.4 µM (inactive)
- GI50 (T47D): 37 µM (inactive)
- GI50 (MDA-MB-435): > 75 µM (inactive)
- GI50 (UACC-62): > 75 µM (inactive)
- GI50 (EKVX): > 75 µM (inactive)
- GI50 (U-251): > 75 µM (inactive)
- GI50 (SF-539): > 75 µM (inactive)
- GI50 (SN12C): > 75 µM (inactive)
- GI50 (RXF 393): 74.5 µM (inactive)
- GI50 (SK-OV-3): > 75 µM (inactive)

SMILES: Cc1cc(=O)n2c3c(c4c(cc13)c(CN(C)C)cc(=O)n4C)OC2
- GI50 (KM12): 14.7 µM (inactive)
- GI50 (RPMI-8226): 25.2 µM (inactive)
- GI50 (A549): 10 µM (inactive)
- GI50 (CAKI-1): 13.1 µM (inactive)
- GI50 (SR): > 25.6 µM (inactive)
- GI50 (SF-268): 15.5 µM (inactive)
- GI50 (Hs-578T): 12.4 µM (inactive)
- GI50 (PC-3): 19.9 µM (inactive)
- GI50 (HOP-92): 28.5 µM (inactive)
- GI50 (CCRF-CEM): > 24.8 µM (inactive)
- GI50 (T47D): 38.5 µM (inactive)
- GI50 (MDA-MB-435): 20.9 µM (inactive)
- GI50 (UACC-62): 12.6 µM (inactive)
- GI50 (EKVX): 20.6 µM (inactive)
- GI50 (U-251): 32.4 µM (inactive)
- GI50 (IGROV-1): 9.51 µM (inactive)
- GI50 (SF-539): 7.18 µM (inactive)
- GI50 (SN12C): 20.3 µM (inactive)
- GI50 (RXF 393): 6.56 µM (inactive)
- GI50 (SK-OV-3): 26.8 µM (inactive)

SMILES: CN(C)CCCc1c[nH]c2ccccc12
- GI50 (KM12): > 100 µM (inactive)
- GI50 (RPMI-8226): > 100 µM (inactive)
- GI50 (A549): > 100 µM (inactive)
- GI50 (CAKI-1): > 100 µM (inactive)
- GI50 (SR): > 100 µM (inactive)
- GI50 (SF-268): > 100 µM (inactive)
- GI50 (Hs-578T): > 100 µM (inactive)
- GI50 (PC-3): > 100 µM (inactive)
- GI50 (HOP-92): > 100 µM (inactive)
- GI50 (CCRF-CEM): > 100 µM (inactive)
- GI50 (T47D): > 100 µM (inactive)
- GI50 (MDA-MB-435): > 100 µM (inactive)
- GI50 (UACC-62): > 100 µM (inactive)
- GI50 (EKVX): > 100 µM (inactive)
- GI50 (U-251): > 100 µM (inactive)
- GI50 (IGROV-1): > 100 µM (inactive)
- GI50 (SF-539): > 100 µM (inactive)
- GI50 (SN12C): > 100 µM (inactive)
- GI50 (RXF 393): > 100 µM (inactive)
- GI50 (SK-OV-3): > 100 µM (inactive)

SMILES: Brc1cccc(/N=N/N2CCCC2)c1
- GI50 (KM12): 93.5 µM (inactive)
- GI50 (RPMI-8226): 17.2 µM (inactive)
- GI50 (CAKI-1): 75.5 µM (inactive)
- GI50 (SR): 27.4 µM (inactive)
- GI50 (SF-268): > 100 µM (inactive)
- GI50 (Hs-578T): > 100 µM (inactive)
- GI50 (PC-3): 71.3 µM (inactive)
- GI50 (HOP-92): 63.1 µM (inactive)
- GI50 (CCRF-CEM): 49.2 µM (inactive)
- GI50 (T47D): 50.2 µM (inactive)
- GI50 (MDA-MB-435): > 100 µM (inactive)
- GI50 (UACC-62): > 100 µM (inactive)
- GI50 (EKVX): 97.9 µM (inactive)
- GI50 (U-251): 80.5 µM (inactive)
- GI50 (IGROV-1): > 100 µM (inactive)
- GI50 (SF-539): > 100 µM (inactive)
- GI50 (SN12C): > 100 µM (inactive)
- GI50 (RXF 393): > 100 µM (inactive)
- GI50 (SK-OV-3): > 100 µM (inactive)
